Measured values published in ChEMBL document CHEMBL1201862, “PubChem BioAssay data set” (2004).
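96-well plates; 48 h exposure; 5 concentrations. Endpoints by linear interpolation between flanking doses. Not reached: highest tested concentration assigned. GI50 marks 50% less growth.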 The source made the active and inactive calls. No stated cut-off is given here; in the data, active = GI50 up to about 1.1 µM and inactive = higher.

Assays:
Assay in all cases: growth of human tumour cells (NCI), 48 h
786-0 = system: 786-0
ACHN = system: ACHN
CCRF-CEM = system: CCRF-CEM
EKVX = system: EKVX
HOP-18 = system: HOP-18
KM12 = system: KM12
Malme-3M = system: Malme-3M
NCI-H23 = system: NCI-H23
RPMI-8226 = system: RPMI-8226
SK-OV-3 = system: SK-OV-3
SN12C = system: SN12C
SNB-75 = system: SNB-75
UO-31 = system: UO-31
A498 = system: A498
CAKI-1 = system: CAKI-1
HL-60 = system: HL-60
OVCAR-4 = system: OVCAR-4
BT-549 = system: BT-549
Hs-578T = system: Hs-578T
SR = system: SR

Row | Structure (SMILES) | GI50 (786-0) | GI50 (ACHN) | GI50 (CCRF-CEM) | GI50 (EKVX) | GI50 (HOP-18) | GI50 (KM12) | GI50 (Malme-3M) | GI50 (NCI-H23) | GI50 (RPMI-8226) | GI50 (SK-OV-3) | GI50 (SN12C) | GI50 (SNB-75) | GI50 (UO-31) | GI50 (A498) | GI50 (CAKI-1) | GI50 (HL-60) | GI50 (OVCAR-4) | GI50 (BT-549) | GI50 (Hs-578T) | GI50 (SR)
1 | O=C1[C@H]2C(c3ccccc3)=NN(C(=O)c3ccccc3)[C@H]2C(=O)N1c1ccccc1 | > 100 µM (inactive) | > 100 µM (inactive) | > 100 µM (inactive) | > 100 µM (inactive) | 68.4 µM (inactive) | > 100 µM (inactive) | > 100 µM (inactive) | > 100 µM (inactive) | > 100 µM (inactive) | > 100 µM (inactive) | > 100 µM (inactive) | > 100 µM (inactive) | > 100 µM (inactive) |  |  |  |  |  |  | 
2 | N#CC(C#N)=Cc1ccc(CP(=O)(O)O)cc1 | > 100 µM (inactive) | > 100 µM (inactive) | 44.2 µM (inactive) | > 100 µM (inactive) | > 100 µM (inactive) | > 100 µM (inactive) | > 100 µM (inactive) | > 100 µM (inactive) | > 100 µM (inactive) | > 100 µM (inactive) | > 100 µM (inactive) |  | > 100 µM (inactive) | > 100 µM (inactive) | > 100 µM (inactive) | 70.6 µM (inactive) | > 100 µM (inactive) |  |  | 
3 | COc1nc(C#CC2(O)CCCCC2)nc(OC)n1 | 22.9 µM (inactive) | 8.49 µM (inactive) | 12.3 µM (inactive) | 18.1 µM (inactive) |  | 15.8 µM (inactive) | 3.1 µM (inactive) | 13.7 µM (inactive) | 2.88 µM (inactive) | 53.6 µM (inactive) | 12.4 µM (inactive) | 19.4 µM (inactive) | 3.82 µM (inactive) | 17.3 µM (inactive) | 4.19 µM (inactive) | 2.64 µM (inactive) | 1.87 µM (inactive) | 14.5 µM (inactive) | 11.5 µM (inactive) | 3.47 µM (inactive)
4 | CC1(C)CCCCCCCCCC2CC2CCC(C)(C)C1=O (stereo not given) | 17.2 µM (inactive) | 19.1 µM (inactive) | 21.6 µM (inactive) | 20.2 µM (inactive) |  | 18.4 µM (inactive) | 21 µM (inactive) | 40.5 µM (inactive) | 24 µM (inactive) | 34 µM (inactive) | 18.4 µM (inactive) | 28.6 µM (inactive) | 19.6 µM (inactive) | 37.4 µM (inactive) | 33.5 µM (inactive) | 22 µM (inactive) | 32.9 µM (inactive) | 34.4 µM (inactive) | 31.3 µM (inactive) | 6.59 µM (inactive)
5 | Cc1nc2c(nc1C)-c1c(c3c(n1Cc1ccccc1)C(=O)CCC3)C(=O)C2=O | 3.42 µM (inactive) | 2.07 µM (inactive) | 3.03 µM (inactive) | 5.69 µM (inactive) |  | 2.09 µM (inactive) | 3.35 µM (inactive) | 3.69 µM (inactive) | 1.84 µM (inactive) | 18.9 µM (inactive) | 2.42 µM (inactive) | 3.48 µM (inactive) | 2.08 µM (inactive) | 18.8 µM (inactive) | 2.15 µM (inactive) | 3.09 µM (inactive) | 1.81 µM (inactive) | 2.86 µM (inactive) | 4.2 µM (inactive) | 2.1 µM (inactive)
6 | CC(=O)OC1CCn2c1nc1cc([N+](=O)[O-])c(C)cc12 (stereo not given) | > 100 µM (inactive) | > 100 µM (inactive) | > 100 µM (inactive) | > 100 µM (inactive) |  | > 100 µM (inactive) | > 100 µM (inactive) | > 100 µM (inactive) | > 100 µM (inactive) | > 100 µM (inactive) | > 100 µM (inactive) | > 100 µM (inactive) | > 100 µM (inactive) | > 100 µM (inactive) | > 100 µM (inactive) | > 100 µM (inactive) | > 100 µM (inactive) | > 100 µM (inactive) | > 100 µM (inactive) | > 100 µM (inactive)
7 | OCC1OC(c2scc3c(=S)[nH]cnc23)C(O)C1O (stereo not given) | 8.99 µM (inactive) | 4.84 µM (inactive) | 20.8 µM (inactive) | 76.2 µM (inactive) |  | 24.5 µM (inactive) | 15.8 µM (inactive) | 21 µM (inactive) | 9.31 µM (inactive) | 2.54 µM (inactive) | 6.15 µM (inactive) | 2.32 µM (inactive) | 6.08 µM (inactive) | 6.84 µM (inactive) | 6.59 µM (inactive) | 3.63 µM (inactive) | 4.01 µM (inactive) | 27.5 µM (inactive) | 1.77 µM (inactive) | 29.1 µM (inactive)
8 | CCCCCCCCCCC[N+]1(Cc2ccccc2)CC2CCN(Cc3ccccc3)CC2C1 (stereo not given) | 1.03 µM (active) | 1.17 µM (inactive) | 0.261 µM (active) | 0.323 µM (active) |  | 0.247 µM (active) | 0.342 µM (active) | 0.181 µM (active) | 0.101 µM (active) | 1.75 µM (inactive) | 0.327 µM (active) | 1.15 µM (inactive) | 1.3 µM (inactive) | 1.5 µM (inactive) | 1.4 µM (inactive) | 0.106 µM (active) | 0.679 µM (active) | 0.305 µM (active) | 0.354 µM (active) | 0.0546 µM (active)
9 | CC1=C(C(=O)NNS(=O)(=O)c2ccc(C)cc2)CC(C(=O)NNS(=O)(=O)c2ccc(C)cc2)=C(C)N1 | > 100 µM (inactive) | 84.9 µM (inactive) | > 10 µM (inactive) | > 100 µM (inactive) | 27.1 µM (inactive) | > 100 µM (inactive) | > 100 µM (inactive) | > 100 µM (inactive) | 36.2 µM (inactive) | > 100 µM (inactive) | > 100 µM (inactive) |  | > 100 µM (inactive) |  | 94.2 µM (inactive) | 55.1 µM (inactive) | > 100 µM (inactive) |  |  | 61.1 µM (inactive)
10 | CC(C)=CCc1c(C)cc2cc3c(c(O)c2c1O)C(=O)C=C(O)C3(CC=C(C)C)C/C=C(\C)CO (stereo not given) |  |  | 11.5 µM (inactive) | 35.7 µM (inactive) | 3.61 µM (inactive) | 41.9 µM (inactive) | 32.3 µM (inactive) | 37.4 µM (inactive) | 20.7 µM (inactive) | 36.7 µM (inactive) | 31.1 µM (inactive) | 48.3 µM (inactive) | 29 µM (inactive) | 8.81 µM (inactive) | 46.3 µM (inactive) | 19.4 µM (inactive) | 37 µM (inactive) |  |  | 
11 | CN1CCc2c1nc(-c1cccnc1)c1c2N(C)CC1 | > 100 µM (inactive) | > 100 µM (inactive) | > 100 µM (inactive) | > 100 µM (inactive) | 60.4 µM (inactive) | > 100 µM (inactive) | > 100 µM (inactive) | > 100 µM (inactive) | > 100 µM (inactive) | > 100 µM (inactive) | > 100 µM (inactive) | > 100 µM (inactive) | 48.8 µM (inactive) | 52 µM (inactive) | > 100 µM (inactive) | > 100 µM (inactive) | > 100 µM (inactive) |  |  | 
12 | Cn1cnc([N+](=O)[O-])c1Sc1ccccn1 | > 100 µM (inactive) | > 100 µM (inactive) | 48.9 µM (inactive) | > 100 µM (inactive) | 14.9 µM (inactive) | > 100 µM (inactive) | 68.4 µM (inactive) | > 100 µM (inactive) | > 100 µM (inactive) | > 100 µM (inactive) | > 100 µM (inactive) | > 100 µM (inactive) | 87.1 µM (inactive) | > 100 µM (inactive) | > 100 µM (inactive) |  | > 100 µM (inactive) |  |  | 50.6 µM (inactive)
13 | COc1ccccc1/C=C\c1cc(OC)c(OC)c(OC)c1 | 31.2 µM (inactive) | 33.8 µM (inactive) | 16.7 µM (inactive) | 15.2 µM (inactive) | > 100 µM (inactive) | 6.89 µM (inactive) | 16.5 µM (inactive) |  | 5.01 µM (inactive) |  | 29.3 µM (inactive) | 10.7 µM (inactive) | 16.1 µM (inactive) | 7.64 µM (inactive) | 8.22 µM (inactive) | 3.22 µM (inactive) | 25.8 µM (inactive) |  |  | 
14 | N#Cc1c(O)cc(=O)n2c1[nH]c1ccccc12 | > 100 µM (inactive) | > 100 µM (inactive) | > 100 µM (inactive) | > 100 µM (inactive) |  | > 100 µM (inactive) | > 100 µM (inactive) | > 100 µM (inactive) | > 100 µM (inactive) | > 100 µM (inactive) | > 100 µM (inactive) | > 100 µM (inactive) | > 100 µM (inactive) | > 100 µM (inactive) | > 100 µM (inactive) | > 100 µM (inactive) | > 100 µM (inactive) | > 100 µM (inactive) | > 100 µM (inactive) | > 100 µM (inactive)
15 | CC1(C)CCCCCC(C)(CCCO)C1=O (stereo not given) | > 100 µM (inactive) | > 100 µM (inactive) | > 100 µM (inactive) | > 100 µM (inactive) |  | > 100 µM (inactive) | > 100 µM (inactive) | > 100 µM (inactive) | > 100 µM (inactive) | > 100 µM (inactive) | > 100 µM (inactive) | > 100 µM (inactive) | > 100 µM (inactive) | > 100 µM (inactive) | > 100 µM (inactive) | > 100 µM (inactive) | > 100 µM (inactive) | > 100 µM (inactive) | > 100 µM (inactive) | > 100 µM (inactive)
16 | CCOC(=O)/C=C(/C(=O)OCC)n1cc(C)c(=O)n(Cc2cnnn2COCCOC(C)=O)c1=O | 7.31 µM (inactive) | 6.05 µM (inactive) | 2.17 µM (inactive) | 14.1 µM (inactive) |  | 21.3 µM (inactive) | 2.8 µM (inactive) | 15.8 µM (inactive) | 8.59 µM (inactive) | > 100 µM (inactive) | 22.1 µM (inactive) | 24.9 µM (inactive) | 16.7 µM (inactive) | 29.2 µM (inactive) | 5.26 µM (inactive) | 3.48 µM (inactive) | 24.7 µM (inactive) | 17.5 µM (inactive) | 19.1 µM (inactive) | 4.91 µM (inactive)
